# Values joined by “and” are separate entries in the source; they are usually repeats but may differ in a detail not shown here. Identical values can stand only once.
# What was measured:
# Assay type in all cases: in vivo, mouse
# [1] = test system: acute itch caused by histamine; assay: Acute itch model: scratching of mice after subcutaneous histamine, BLA given intragastrically 2 h before; conditions: for Number of scratching in mouse in the histamine group (single animals): between 2 and 2.5 hours after BLA (30 min), individual mouse; for Number of scratching in mouse in the histamine group, average number: 30 min, solvent group 36.56667
# Source text: (§1) Researches over the years have shown that itch is mainly transmitted by two types of C fibers, with one sensitive to histamine and the other to chloroquine. Therefore, the scratching response of animals caused by subcutaneous injection of histamine or chloroquine is internationally recognized as an acute itch model. The present disclosure is aimed to investigate whether the intragastric administration of bulleyaconitine A (BLA) can inhibit acute itch caused by histamine or chloroquine.
# (§2) 6-8 weeks old C57 mice were employed in experiments (body weight of 17-20 grams, from the Experimental Animal Center of Sun Yat-Sen University). The mice were randomly divided into four groups, namely solvent+histamine control group, BLA+histamine group, solvent+chloroquine control group and BLA+chloroquine group. For the convenience of subcutaneous injection and observation of scratching, the hair around the neck and back (at least 3×5 cm) was shaved off under temporary anesthesia with isoflurane three days before the start of the experiments. The control group was given a subcutaneous injection of 50 μl of histamine (2 mg/ml) or chloroquine (4 mg/ml), with an intragastric administration of a solvent (carboxymethyl cellulose) 2 hours before the injection. The experiment group was given an intragastric administration of BLA with different dosages (0.125, 0.25 and 0.5 mg/kg), 2 hours before the injection of histamine or chloroquine. The BLA was administered 2 hours in advance, because it needs 1.5-2 hours for BLA to take effect from its intragastric administration. The number of scratching in each group was counted within 30 minutes for comparison, because the acute scratching response induced by histamine or chloroquine subsided 30 minutes later after drug injection as shown by previous studies.
# (§3) During the recording in experiment, the mice were placed in separate, transparent acrylic boxes having a size of 15×15×20 cm each, and with two small openings at top of each box to allow air to circulate. The scratching behavior was recorded as video by a camera, which was placed above mouse because their behaviors of scratching their back or neck mostly happen in an angle of view directly opposite to their upper back.
# (§4) In order to minimize attentional shift and eliminate tension as much as possible, each transparent box was supplied with a small amount of padding, to absorb any urine excreted from the mouse. The ambient temperature was kept at 23-27° C., and additionally all the staff were asked to leave during the recording to keep the experimental environment quiet. The experiment was carried out between 9:00-14:00 h. To acclimatize the animals to the test environment, the mouse had been acclimatized in the transparent box for one hour at 9:00 and 13:00 every day since two days before the formal experiment. Because the scratching of a mice often happens quickly, the action from mice starting to scratch its neck or back by its hind paw until the hind paw hitting on the ground or being put into its mouth to clean the dander is taken as one scratching behavior.
# (§5) Statistical methods: the number of scratching was represented by average value±standard deviation, and Turkey test was employed to compare the difference between different groups.
# (§6) Solution preparation and application method: 0.05 g of BLA was weighed and dissolved in 1000 ml of 0.5% sodium carboxymethyl cellulose solution. Histamine and chloroquine were prepared with 0.9% sterile saline, to make a dosage of histamine 100 μg and chloroquine 200 μg. To minimize the skin injure at the injection site, a thinner needle in 0.3 ml for insulin was connected to the needle port of the microinjector to reduce injure to mouse.
# [2] = test system: acute itch caused by chloroquine; assay: Acute itch model: scratching of mice after subcutaneous chloroquine, BLA given intragastrically 2 h before; conditions: for Number of scratching in mouse in the chloroquine group (single animals): between 2 and 2.5 hours after BLA (30 min), individual mouse; for Number of scratching in mouse in the chloroquine group, average number: 30 min, solvent group 92.565556
# Source text: as §1, §2, §3, §4, §5, §6
# [3] = Observation of drowsiness or other side effects in mice of the itch experiments
# Source text: as §2
# BLA inhibited the itch caused by histamine or chloroquine in a manner of depending on the dosage of intragastric administration.
# [4] = 0.5 mg/kg intragastric, P<0.001 vs solvent group
# [5] = oral administration, 0.125-0.5 mg/kg
structure (smiles),measurement,setting,value
"CCN1C[C@]2(COC)CC[C@H](OC)[C@]34C1[C@H]([C@H](OC)[C@H]23)[C@@]1(OC(C)=O)C[C@H](OC)[C@]2(O)C[C@@H]4[C@@H]1[C@H]2OC(=O)c1ccc(OC)cc1 [BLA, Bulleyaconitine A]",Number of scratching in mouse in the histamine group (single animals),[1]; 0.125 mg/kg BLA intragastric + histamine s.c.,22 and 33 and 0 and 18 (2×) and 47 and 43 (3×) and 77 and 60 and 46 (2×) and 42 and 16 and 21 and 87 and 26 and 17 and 38 (3×) and 37 and 3 and 84 and 35 and 64 and 52 and 6 and 25
same,"Number of scratching in mouse in the histamine group, average number","[1]; 0.125 mg/kg BLA intragastric + histamine, n=30",37.5
same,Inhibition of itching caused by histamine (in words),[1]; 0.125 mg/kg intragastric,did not inhibit
same,"Number of scratching in mouse in the histamine group, average number","[1]; 0.25 mg/kg BLA intragastric + histamine, n=38",24.76
same,Inhibition of scratching response caused by histamine (in words),"[1]; 0.25 mg/kg intragastric, P<0.05 vs solvent group",significantly inhibited
same,Number of scratching in mouse in the histamine group (single animals),[1]; 0.5 mg/kg BLA intragastric + histamine s.c.,0 (12×) and 50 and 38 and 48 and 26
same,"Number of scratching in mouse in the histamine group, average number","[1]; 0.5 mg/kg BLA intragastric + histamine, n=16",10.1325
same,Inhibition of acute itch caused by histamine (in words),[1]; [4],completely inhibited
same,Dose dependence of inhibition of itching caused by histamine,[1]; [5],in a dosage-dependent manner
same,Number of scratching in mouse in the chloroquine group (single animals),[2]; 0.125 mg/kg BLA intragastric + chloroquine s.c.,29 and 70 and 90 and 31 and 115 and 185 and 89 and 40 and 130 and 23 and 197 and 24 (2×) and 53 and 10 and 182 and 27 and 26 and 138 and 48 and 41 and 62 and 34 and 93 and 45
same,"Number of scratching in mouse in the chloroquine group, average number","[2]; 0.125 mg/kg BLA intragastric + chloroquine, n=25",72.24
same,Inhibition of acute itch caused by chloroquine (in words),"[2]; 0.125 mg/kg intragastric, P>0.05, not statistically significant",only had slightly inhibitory effect
same,Number of scratching in mouse in the chloroquine group (single animals),[2]; 0.25 mg/kg BLA intragastric + chloroquine s.c.,43 and 75 (2×) and 136 and 0 (3×) and 33 and 101 and 25 (2×) and 38 and 26 and 30 and 78 (3×) and 34 and 37 and 10 and 64 and 118 and 53 and 17 and 23 and 143 and 80 and 47
same,"Number of scratching in mouse in the chloroquine group, average number","[2]; 0.25 mg/kg BLA intragastric + chloroquine, n=28",52.39
same,Inhibition of scratching response caused by chloroquine (in words),"[2]; 0.25 mg/kg intragastric, P<0.01 vs solvent group",significantly inhibited
same,Number of scratching in mouse in the chloroquine group (single animals),[2]; 0.5 mg/kg BLA intragastric + chloroquine s.c.,0 (13×) and 27 and 20 and 23
same,"Number of scratching in mouse in the chloroquine group, average number","[2]; 0.5 mg/kg BLA intragastric + chloroquine, n=16",4.3875
same,Inhibition of acute itch caused by chloroquine (in words),[2]; [4],completely inhibited
same,Dose dependence of inhibition of itching caused by chloroquine,[2]; [5],in a dosage-dependent manner
same,Drowsiness or other side effects in mouse,[3]; 0.125 mg/kg intragastric,no drowsiness or other side effects in mouse was observed
same,Drowsiness or other side effects in mouse,[3]; 0.25 mg/kg intragastric,no drowsiness or other side effects in mouse was observed
same,Drowsiness in mouse,[3]; 0.5 mg/kg intragastric,drowsiness in mouse was observed
